{"source": "patent US6531140B2", "about": "“Anti-irritant compositions containing a cyclic nucleotide” (E-L Management, priority 1999, dated 2003)", "key": {"cAMP-PDE": {"test_system": "cAMP-PDE", "details": "in vitro; cited from earlier work"}, "[1]": {"test_system": "skin irritation caused by Balsam of Peru", "experiment": "Balsam of Peru skin irritation test on ventral forearms of panelists (skin redness, Minolta Chromameter)", "assay_type": "in vivo, human", "details": "topical; for Percent Reduction in the onset of irritation: Example 2, before Balsam of Peru", "text": "Eight female volunteer panelists between the ages of 21 and 55 having a history of skin sensitivity to Balsam of Peru are chosen for a study. […] The panelists have a history of skin reactivity to Balsam of Peru which manifests itself in the form of an immediate urticaria reaction. The test sites on the ventral forearms of the panelists are devoid of warts, nevi, moles, sunburn, suntan, scars and active dermal lesions. Pregnant or lactating volunteers are excluded. […] The composition is given time, about 20 minutes, to absorb into the skin on the forearm. Next, an irritant, Balsam of Peru, 8.00 percent in petrolatum, is applied to the test area of the skin and when redness appears within 30 to 40 minutes after application, Balsam of Peru is wiped off with a wet towel. Skin redness is measured with the Minolta Chromameter. Skin irritation is measured in terms of an increase in skin redness measured using a Minolta Chromameter and compared with a negative and a positive control. The positive control is the color of the skin treated solely with Balsam of Peru, and the negative control is the color of the skin treated with a cola […] solution in 10% hydroalcohol (1:1)."}, "cGMP-PDE": {"test_system": "cGMP-PDE", "details": "in vitro; cited from earlier work"}, "[2]": {"test_system": "inflammatory parameters in atopic dermatitis", "details": "in vivo; cited from earlier work"}}}
{"smiles": "Nc1ncnc2c1ncn2C1CC2OP(=O)(O)OCC2O1", "note": "(centres unmarked) [2′-deoxy cAMP, 2′-deoxy adenosine 3 ′5′ cyclic monophosphate]", "values": [{"measurement": "inhibition of cAMP-PDE", "setting": "cAMP-PDE", "value": "specific and potent in vitro inhibitors"}, {"measurement": "reduction in the onset of irritation", "setting": "[1]; Example 1, 0.5 percent in magnesium buffer, applied about 20 minutes before 8.00 percent Balsam of Peru in petrolatum, eight female panelists", "value": 74, "unit": "%"}, {"measurement": "Percent Reduction in the onset of irritation", "setting": "[1]; 0.5% concentration", "value": 71, "unit": "%"}]}
{"smiles": "Nc1nc2c(ncn2[C@H]2C[C@@H]3OP(=O)(O)OC[C@H]3O2)c(=O)[nH]1", "note": "[2′-deoxy cGMP]", "values": [{"measurement": "inhibition of cGMP-PDE", "setting": "cGMP-PDE", "value": "specific and potent in vitro inhibitors"}]}
{"smiles": "COc1ccc(C2CNC(=O)NC2)cc1O[C@H]1C[C@@H]2CC[C@H]1C2", "note": "[CP80,633]", "values": [{"measurement": "reduction of inflammatory parameters", "setting": "[2]", "value": "significant reduction of inflammatory parameters"}]}
{"smiles": "Cn1c(=O)c2c(ncn2C)n(C)c1=O", "note": "[Caffeine, caffeine]", "values": [{"measurement": "Percent Reduction in the onset of irritation", "setting": "[1]; 1% concentration", "value": 45, "unit": "%"}]}
{"smiles": "CC(C)Cn1c(=O)n(C)c(=O)c2[nH]cnc21", "note": "[IBMX, 3-isobutyl 1-methyl xanthine]", "values": [{"measurement": "Percent Reduction in the onset of irritation", "setting": "[1]; 1% concentration", "value": 66, "unit": "%"}]}
{"smiles": "CC(=O)CCCCn1c(=O)c2c(ncn2C)n(C)c1=O", "note": "[Pentoxifylline, pentoxifylline]", "values": [{"measurement": "Percent Reduction in the onset of irritation", "setting": "[1]; 1% concentration", "value": 50, "unit": "%"}]}
{"smiles": "CCCCOc1cc(CC2CNC(=O)N2)ccc1OC", "note": "(centres unmarked) [Ro-12-1724]", "values": [{"measurement": "Percent Reduction in the onset of irritation", "setting": "[1]; 1% concentration", "value": 57, "unit": "%"}]}
{"smiles": "COc1ccc(C2CNC(=O)C2)cc1OC1CCCC1", "note": "(centres unmarked) [Rolipram]", "values": [{"measurement": "Percent Reduction in the onset of irritation", "setting": "[1]; 1% concentration", "value": 69, "unit": "%"}]}
{"smiles": "O=c1[nH]cnc2c1ncn2[C@@H]1O[C@@H]2COP(=O)(O)O[C@H]2[C@H]1O", "note": "[cIMP, cyclic IMP]", "values": [{"measurement": "Percent Reduction in the onset of irritation", "setting": "[1]; 1% concentration", "value": 42, "unit": "%"}]}
